Measured values reported in patent US6083941A, “Inhibition of NMDA receptor activity by pregnenolone sulfate derivatives” (Trustees of Boston University, priority 1998, dated 2000).
Entries after “also recorded” stand apart in the source; their conditions may differ. Structures can show the parent of a compound that is named as a salt. Where two headings read alike, the source gives them in different places.

What was measured:
[1] = system: mice; assay: Behavioral observational assessment after i.p. steroid; type: in vivo; conditions: 25 mg/kg i.p.; for behavioral assessment: 30 min. after injection
Protocol: To test for behavioral effects, PS, 5β3αS, 5β3αHS, βE2 (17)HS, or βE2 (3)HS (7 mg/ml in DMSO) was administered to mice i.p. at 25 mg/kg (5 animals per drug group). Behavioral assessments were made 30 min. after injection using a comprehensive observational assessment of motor-affective responses, sensory-motor responses, posture, muscle tone, equilibration, CNS excitation, and autonomic function (Irwin, R. P., et al., NeuroSci. Lett., 141:30-44 (1968)). […] The latency to loss of righting reflex was 2.5±0.5 min., and the latency to regain the righting reflex was 83±11 min. The rapidity of onset argues that 5β3αHS readily crosses the blood brain barrier.

[2] = system: NMDA-induced convulsion and mortality in mice; assay: NMDA-induced convulsion test (200 mg/kg NMDA); type: in vivo
Protocol: Male CD-1 mice (Charles River Laboratories, Wilmington, Mass.) weighing 20-25 g were used for the NMDA-induced convulsion test. Mice were injected intraperitoneally with the test compound dissolved in DMSO or with vehicle. NMDA (200 mg/kg, i.p.) was injected either 2 minutes after intravenous injection of test compound or 20 minutes after intraperitoneal injection of test compound.

[3] = system: NMDA-induced cell death in primary neuronal cultures of rat hippocampal formation; assay: Trypan blue exclusion, NMDA-induced cell death (excitotoxicity) in primary hippocampal cultures; type: cell-based
Excerpt: Trypan blue exclusion was used to evaluate the ability of derivatives of pregnenolone sulfate to inhibit NMDA-induced cell death in primary neuronal cultures of rat hippocampal formation.
Mixed neuronal and glial cultures of hippocampal tissue were derived from fetal rats on day 18 of embryonic development and were maintained in culture for 16 to 24 days (Brewer, G. J., Brain Res., 494: 65-74 (1989)). Care for the animals used in this study was in accordance with institutional guidelines. Hippocampal tissue from Sprague-Dawley rat pups was collected immediately following removal from dams sacrificed with CO2 on embryonic day 18. Cells were dissociated by trituration in Ca^2 +/Mg^2 + free Hank's basic salt solution supplemented with 4.2 mM bicarbonate, 1 mM sodium pyruvate, 20 mM HEPES, 3 mg/ml BSA, and pelleted by centrifugation (900 rpm, 3 min). The resulting pellet was suspended in DMEM supplemented with 2.4 mg/ml BSA, 26.5 mM sodium bicarbonate, 1 mM sodium pyruvate, 20 mM HEPES, 10% FBS, 100 units/ml penicillin, 100 μg/ml streptomycin, and a modification of Brewers B16 defined components (with […] vitamin B12 and without catalase, glutathione, and superoxide dismutase) (Pike, C. J., et al., Neurosci. 13:1676-87 (1993)) and plated onto poly-L-lysine coated 24 well culture dishes (Nunclon) at a density of 15,000 cells/cm^2 and were maintained in a humidified incubator in 5% CO2 /95% air at 37° C. After 5 days in vitro, nonneuronal cell division was inhibited by exposure to 2×10^-6 M cytosine arabinoside for 48 hrs. Cells were subsequently maintained in medium identical to that used for platting without BSA or FBS.
The number of living neurons was determined by assessing the ability of cells to exclude trypan blue 16 hrs. after the addition of drug solutions to the medium of individual culture wells (Dawson, V. L., et al., Proc. Natl. Acad. Sci. USA, 88:6368-6371 (1991)). Drugs were introduced to cultures in 100 μl of conditioned media, collected from experimental cultures just prior to treatment, to a final volume of 0.5 ml. NMDA was dissolved in DMEM at concentrations of 0-5 mM so that addition of 10 μl yielded final concentrations of 0-100 μM. MK-801, a positive control, was dissolved in DMEM at a concentration of 1 mM so that addition of 5 μl yielded a final concentration of 10 μM. Control cultures were exposed only to an equivalent volume of DMEM, and concentration of DMSO (0.5%). The concentrations of the pregnenolone sulfate derivatives were as follows: 10-100 μM 5β3αS, 100 μM 5β3α hemisuccinate and 200 μM 17β-estradiol hemisuccinate.
After exposure to drugs, the medium was replaced by 0.1 M sodium phosphate buffer/0.4% trypan blue. Cell death was assessed by counting the number of trypan blue positive and negative neurons in five high power fields per culture well with an inverted phase contrast microscope using both bright field and phase settings. Cell death is expressed as the ratio of the number of trypan blue positive to total number of cells counted in each well×100 (percent cell death).

[4] = system: NMDA-induced seizure and death in mice; assay: NMDA-induced seizure and death (100 mg/kg NMDA challenge); type: in vivo; conditions: steroid 25 mg/kg i.p., DMSO 50%
Protocol: 5β3αHS (25 mg/kg, i.p.) protects mice from NMDA-induced death. None of the steroids tested altered the latency to NMDA-induced seizure. However, 100% of the animals that received 5β3αHS survived the 100 mg/kg NMDA challenge compared to 50% for DMSO, 75% for 5β3αS and E2 (3)HS, and 50% for E2 (17)HS.

[5] = system: glutamate receptor-mediated spontaneous EPSCs in rat hippocampal neurons; assay: Spontaneous excitatory postsynaptic currents (EPSCs), whole-cell recording in cultured hippocampal neurons; type: cell-based; conditions: for effect on spontaneous EPSCs: cultures of rat hippocampal neurons; for EC50: voltage-clamped at -70 mV, read-out: EC50 of EPSC potentiation
Protocol: Primary cultures of hippocampal neurons were prepared from embryonic day 18 rats. Cultured neurons were used in experiments 2-3 weeks after plating.
Spontaneous excitatory postsynaptic currents were recorded by the whole-cell variant of the patch clamp technique. The pipet solution usually contained (in mM) KCl 10, EGTA 11, sodium gluconate 3, potassium gluconate 140 and HEPES 10, adjusted to pH 7.2 with KOH. The bath solution contained (in mM) NaCl 150, KCl 4, CaCl2 1, and HEPES 10, adjusted to pH 7.2 with NaOH. Because NMDA-induced currents are subject to voltage-dependent block by extracellular Mg^2+, no magnesium salts were added to the bath solution. All records were made with the cell membrane potential clamped at -70 mV, which is very close to the Cl- equilibrium potential. Therefore, IPSCs are not expected to be observed and spontaneous activity should consist of EPSCs. The complete blockage of spontaneous activity by the co-application of the NMDA receptor antagonist APV and the non-NMDA receptor antagonist DNQX argues that the observed spontaneous activity is glutamate receptor-mediated.
Drug solutions were applied to single neurons by pressure ejection (15 psi) from 7-barrel pipets (tip opening ~3-5 μm) positioned ~50 μm from the neuronal soma. In all experiments, neurons received a 40s application of either steroid or steroid plus antagonist(s), followed by 10-20s pulse of external buffer solution.

[6] = mice, i.p., high dose, time limit 30 min

CC(=O)[C@H]1CC[C@H]2[C@@H]3CC[C@@H]4C[C@H](OC(=O)CCC(=O)O)CC[C@]4(C)[C@H]3CC[C@]12C [5β3αHS, 3α-hydroxy-5β-pregnan-20-one hemisuccinate]
latency to loss of righting reflex [1]: 2.5 ± 0.5 min | latency to regain the righting reflex [1]: 83 ± 11 min | behavioral assessment [1]: lost virtually all muscle tone | mortality induced by 200 mg/kg of NMDA ([2]; mice, i.p., FIG. 7): dose-dependently inhibited mortality | tonic seizures induced by 200 mg/kg of NMDA ([2]; mice, i.p., FIG. 7): dose-dependently inhibited tonic seizures | mortality induced by NMDA at the high dose [2, 6]: completely block the mortality | tonic seizures induced by NMDA at the high dose [2, 6]: completely block the seizures | inhibition of the cell death induced by chronic NMDA ([3]; 100 μM 5β3α hemisuccinate): 50% | inhibition of the cell death produced by short term exposure to NMDA ([3]; 100 μM 5β3α hemisuccinate): 46% | animals that survived the 100 mg/kg NMDA challenge [4]: 100%

CC(=O)[C@H]1CC[C@H]2[C@@H]3CC[C@@H]4C[C@H](OS(=O)(=O)O)CC[C@]4(C)[C@H]3CC[C@]12C [5β3αS, 3α-hydroxy-5β-pregnan-20-one sulfate]
behavioral assessment [1]: very minor behavioral impairment | seizures and mortality induced by NMDA ([2]; mice, i.v. administration, FIG. 8): effective in blocking seizures and mortality | latency to onset of seizures ([2]; printed:): increases the latency to onset of seizures | mortality ([2]; printed: rats following i.v. injection of 200 mg/kg NMDA): decreases mortality | protection against chronic NMDA-induced cell death ([3]; 10-100 μM 5β3αS, FIG. 5): ineffective against chronic NMDA-induced cell death | protection against short term NMDA excitotoxicity ([3]; 10-100 μM 5β3αS, FIG. 5): protects against short term NMDA excitotoxicity | block of cell death due to NMDA ([3]; steroid present during the exposure only): completely blocked the cell death | block of cell death due to NMDA ([3]; steroid present only after the exposure): considerably less effective | animals that survived the 100 mg/kg NMDA challenge [4]: 75% | effect on spontaneous EPSCs [5]: inhibits spontaneous EPSCs

CC(=O)C1CCC2C3CC=C4CC(OS(=O)(=O)O)CCC4(C)C3CCC12C (stereo not shown) [PS, pregnenolone sulfate]
behavioral assessment [1]: unaffected except for a single decreased score on locomotor activity | potentiation of EPSCs with NMDA receptors blocked ([5]; 100 μM steroid, APV (40 μM)): reduced | effect on spontaneous EPSCs [5]: potentiates spontaneous EPSCs; also recorded: potentiates spontaneous excitatory post-synaptic currents | EC50 ([5]; listed as pregnenolone sulfate): 11.9 µM | EC50 [5]: 5.6 µM
